# Reference: patent US20040019095A1, “N, N'-dimethylated N-confused porphyrins” (priority 2002, published 2004)
# Experiment: Singlet oxygen test with DPBF (decay of DPBF absorption at 418 nm on irradiation)
# Format: physicochemical
# Settings: solution of DPBF and porphyrin salt irradiated with halogen lamp, filter ~700 nm; b88: four 20 seconds intervals
# Description: Alternatively, the ability to generate singlet oxygen may be tested as follows. DPBF (1,3-diphenylisobenzofuran)^8 is used to determine the ability of N,N′-dimethylated N-confused porphyrin salts to generate singlet oxygen. DPBF reacts quickly with singlet oxygen and its absorption decay around 418 nm can be easily monitored. […] A solution containing DPBF and N,N′-dimethylated N-confused porphyrin salts (e.g. compound 9 in FIG. 3) was irradiated with a halogen lamp using a filter (˜700 nm), and monitored by UV-vis spectroscopy at 418 nm.
# Pyrrole (Acros) was distilled from CaH2 before use. The silica gel was 230-400 mesh Silicycle). Activity III basic alumina was obtained by adding 6% water to activity I Brockman basic alumina, 60-325 mesh (Fisher). All other materials and solvents were used as received. The NMR spectra were recorded on a Bruker WH-400 or a Bruker AV-400 in the solvents indicated and were referenced to residual solvent peaks. Elemental analyses were performed on a Carlo Erba Elemental Analyzer1108. The UV-vis spectra were measured on a Cary 50. Mass spectra were determined on a KRATOS Concept IIHQ hybrid mass spectrometer. Irradiations were carried with a 250 W Osram HLX 64655 […] in an Oriel lamp housing (model 66184). The light output passed through a glass filter: P70-700-S-Corion. […]
substance,measurement,value
"N,N′-Dimethylated 2-aza-5,10,15,20-tetra(p-tolyl)-21-carba-porphyrin.HI [compound 9]",decay of UV-vis signal at 418 nm (singlet oxygen generation),Substantial decay
